SMILES strings stand for the structures. Bridge positions count the residues as written; N and C are the ends. Square brackets hold non-standard residues; d marks the D form. Peptide text beside a SMILES is read from it. * marks the point of attachment. Bip(4'-COOH) = N[C@@H](Cc1ccc(-c2ccc(C(=O)O)cc2)cc1)C(=O)O; Bip(4'-NHAc) = CC(=O)Nc1ccc(-c2ccc(C[C@H](N)C(=O)O)cc2)cc1; Phe(3-CF3) = N[C@@H](Cc1cccc(C(F)(F)F)c1)C(=O)O; Ala(morpholin-4-yl) = N[C@@H](CN1CCOCC1)C(=O)O; Phe(4-COOH) = N[C@@H](Cc1ccc(C(=O)O)cc1)C(=O)O; Bip = N[C@@H](Cc1ccc(-c2ccccc2)cc1)C(=O)O; Phe(3-Me) = Cc1cccc(C[C@H](N)C(=O)O)c1; Val(3-OH) = CC(C)(O)[C@H](N)C(=O)O; hPhe = N[C@@H](CCc1ccccc1)C(=O)O; Aad = N[C@@H](CCCC(=O)O)C(=O)O; Cha = N[C@@H](CC1CCCCC1)C(=O)O; Carboxymethyl = O=C(O)C*; NMeA = CN[C@@H](C)C(=O)O; Orn = NCCC[C@H](N)C(=O)O; Dab = NCC[C@H](N)C(=O)O

In the first assay the target is T1, Alexa fluor-647 labeled human PD-L1-Ig binding to Jurkat cell line over-expressing human PD-1 (Homo sapiens, UniProt Q15116).
T1 construct: expressed in transfected cells; host or cells: Jurkat
T1 sequence (Q15116 25-288): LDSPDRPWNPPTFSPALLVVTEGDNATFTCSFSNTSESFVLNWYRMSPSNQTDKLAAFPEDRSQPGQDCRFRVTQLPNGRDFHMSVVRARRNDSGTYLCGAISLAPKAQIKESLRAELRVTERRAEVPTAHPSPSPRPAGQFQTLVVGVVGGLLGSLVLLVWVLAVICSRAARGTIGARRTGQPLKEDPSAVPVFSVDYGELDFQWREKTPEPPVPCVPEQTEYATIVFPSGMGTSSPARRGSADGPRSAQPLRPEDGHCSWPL
Put plainly: Jurkat-PD-1 Cell Binding High-Content Screening Assay (CBA): Method 3 (Alexa fluor-647 labeled PD-L1-Ig). Conditions: Jurkat-PD-1 cells, Alexa fluor-647 labeled PD-L1-Ig 177 nM; head μM; read-out: CBA Method 3 μM. In short, it runs like this:
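Readout by high-content imaging of PFA-fixed, Hoechst-stained cells after 1 h with 177 nM (final) Alexa fluor-647 PD-L1-Ig. Compound was added first to hPD-1 Jurkat cells in RPMI plus 10% FCS for 2 h at 37 °C.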
Regarding `CC(=O)Nc1ccc(-c2ccc(C[C@@H]3NC(=O)[C@H](Cc4cccc(C(F)(F)F)c4)NC(=O)[C@H](CC(=O)O)NC(=O)[C@H](Cc4ccc(-c5ccc(C(=O)O)cc5)cc4)NC(=O)[C@H](CN4CCOCC4)NC(=O)CSC[C@@H](C(=O)N[C@@H](CCN)C(N)=O)NC(=O)[C@H](CCC(N)=O)NC(=O)[C@H](C(C)(C)O)NC(=O)[C@H](CC4CCCCC4)NC(=O)[C@H](CCN)NC(=O)[C@@H](CC(C)C)NC(=O)[C@H](C)N(C)C(=O)[C@H](Cc4ccc(C(=O)O)cc4)NC(=O)[C@H](Cc4ccc(-c5ccccc5)cc4)NC3=O)cc2)cc1` [Example 5296] ({CH2CO}-[Ala(morpholin-4-yl)][Bip(4'-COOH)]D[Phe(3-CF3)][Bip(4'-NHAc)][Bip][Phe(4-COOH)][NMeA][dL][Dab][Cha][Val(3-OH)]QC[Dab]-NH2; thioether N-14), the IC50 was determined as 0.02 µM.

For the compound `CC(=O)Nc1ccc(-c2ccc(C[C@@H]3NC(=O)[C@H](Cc4cccc(C)c4)NC(=O)[C@H](CC(=O)O)NC(=O)[C@H](Cc4ccc(C(=O)O)cc4)NC(=O)[C@H](CN4CCOCC4)NC(=O)CSC[C@@H](C(=O)N[C@@H](CCN)C(N)=O)NC(=O)[C@H](CCCC(=O)O)NC(=O)[C@H](C(C)C)NC(=O)[C@H](CC4CCCCC4)NC(=O)[C@H](CCN)NC(=O)[C@@H](CC(C)C)NC(=O)[C@H](C)N(C)C(=O)[C@H](Cc4ccc(C(=O)O)cc4)NC(=O)[C@H](Cc4ccc(-c5ccccc5)cc4)NC3=O)cc2)cc1` [Example 5255] ({CH2CO}-[Ala(morpholin-4-yl)][Phe(4-COOH)]D[Phe(3-Me)][Bip(4'-NHAc)][Bip][Phe(4-COOH)][NMeA][dL][Dab][Cha]V[Aad]C[Dab]-NH2; thioether N-14), the IC50 came to 0.0022 µM.

Regarding `CC(=O)Nc1ccc(-c2ccc(C[C@@H]3NC(=O)[C@H](Cc4cccc(C)c4)NC(=O)[C@H](CC(=O)O)NC(=O)[C@H](Cc4ccc(-c5ccc(C(=O)O)cc5)cc4)NC(=O)[C@H](CN4CCOCC4)NC(=O)CSC[C@@H](C(=O)N[C@@H](CCN)C(N)=O)NC(=O)[C@H](CCC(=O)O)NC(=O)[C@H](C(C)C)NC(=O)[C@H](CC4CCCCC4)NC(=O)[C@H](CCN)NC(=O)[C@@H](CC(C)C)NC(=O)[C@H](C)N(C)C(=O)[C@H](Cc4ccc(C(=O)O)cc4)NC(=O)[C@H](Cc4ccc(-c5ccccc5)cc4)NC3=O)cc2)cc1` [Example 5092] ({CH2CO}-[Ala(morpholin-4-yl)][Bip(4'-COOH)]D[Phe(3-Me)][Bip(4'-NHAc)][Bip][Phe(4-COOH)][NMeA][dL][Dab][Cha]VEC[Dab]-NH2; thioether N-14), the IC50 was 0.1 µM.

For the compound `CC(=O)Nc1ccc(-c2ccc(C[C@@H]3NC(=O)[C@H](Cc4cccc(C)c4)NC(=O)[C@H](CC(=O)O)NC(=O)[C@H](Cc4ccc(-c5ccc(C(=O)O)cc5)cc4)NC(=O)[C@H]([C@@H](C)O)NC(=O)CSC[C@@H](C(=O)N[C@@H](CCN)C(N)=O)NC(=O)[C@H](Cc4cnc[nH]4)NC(=O)[C@H](C(C)(C)O)NC(=O)[C@H](CC4CCCCC4)NC(=O)[C@H](CCN)NC(=O)[C@@H](CC(C)C)NC(=O)[C@H](C)N(C)C(=O)[C@H](Cc4ccc(OCC(=O)O)cc4)NC(=O)[C@H](Cc4ccc(-c5ccccc5)cc4)NC3=O)cc2)cc1` [Example 5132] ({CH2CO}-T[Bip(4'-COOH)]D[Phe(3-Me)][Bip(4'-NHAc)][Bip]Y(Carboxymethyl)[NMeA][dL][Dab][Cha][Val(3-OH)]HC[Dab]-NH2; thioether N-14), the IC50 was determined as 0.02 µM.

Staying with this assay, now noted: Jurkat-PD-1 cells, Alexa fluor-647 labeled PD-L1-Ig 177 nM; nM; read-out: CBA Method 3.
Regarding `CC(C)C[C@H]1NC(=O)[C@H](C)N(C)C(=O)[C@H](CCC(N)=O)NC(=O)[C@H](Cc2ccc(-c3ccccc3)cc2)NC(=O)[C@H](CCc2ccccc2)NC(=O)[C@H](Cc2cccc(C(F)(F)F)c2)NC(=O)[C@H](CC(=O)N[C@@H](CC(=O)O)C(=O)O)NC(=O)[C@H](Cc2ccc(OCC(=O)O)cc2)NC(=O)[C@H](CN2CCOCC2)NC(=O)CSC[C@@H](C(=O)N[C@@H](CCN)C(N)=O)NC(=O)[C@H](CCCN)NC(=O)[C@H](C(C)C)NC(=O)[C@H](CC2CCCCC2)NC(=O)[C@H](CCN)NC1=O` [Example 5280] ({CH2CO}-[Ala(morpholin-4-yl)]Y(Carboxymethyl)D(Asp)[Phe(3-CF3)][hPhe][Bip]Q[NMeA][dL][Dab][Cha]V[Orn]C[Dab]-NH2; thioether N-14), the IC50 was 0.0046 µM.

Consider `CC(C)C[C@H]1NC(=O)[C@H](C)N(C)C(=O)[C@H](Cc2ccc(OCC(=O)O)cc2)NC(=O)[C@H](Cc2ccc(-c3ccccc3)cc2)NC(=O)[C@H](Cn2cc(C3CC3)nn2)NC(=O)[C@H](Cc2cccc(C(F)(F)F)c2)NC(=O)[C@H](CC(=O)O)NC(=O)[C@H](Cc2ccc(C(=O)O)cc2)NC(=O)[C@H](CN2CCOCC2)NC(=O)CSC[C@@H](C(=O)N[C@@H](CCN)C(N)=O)NC(=O)[C@H](CCC(N)=O)NC(=O)[C@H](C(C)C)NC(=O)[C@H](CC2CCCCC2)NC(=O)[C@H](CCN)NC1=O` [Example 5250], for which the IC50 amounted to 0.0014 µM.

As to `CC(C)C[C@H]1NC(=O)[C@H](C)N(C)C(=O)[C@H](Cc2ccc(C(=O)O)cc2)NC(=O)[C@H](Cc2ccc(-c3ccccc3)cc2)NC(=O)[C@H](Cn2cc(C3CC3)nn2)NC(=O)[C@H](Cc2cccc(C(F)(F)F)c2)NC(=O)[C@H](CC(=O)O)NC(=O)[C@H](Cc2ccc(C(=O)O)cc2)NC(=O)[C@H]([C@@H](C)N)NC(=O)CSC[C@@H](C(=O)N[C@@H](CCN)C(N)=O)NC(=O)[C@H](CCC(=O)O)NC(=O)[C@H](C(C)C)NC(=O)[C@H](CC2CCCCC2)NC(=O)[C@H](CCN)NC1=O` [Example 5251], the IC50 was 0.0016 µM.

As to `Cc1cccc(C[C@@H]2NC(=O)[C@H](CC(=O)O)NC(=O)[C@H](Cc3ccc(-c4ccc(C(=O)O)cc4)cc3)NC(=O)[C@H](CN3CCOCC3)NC(=O)CSC[C@@H](C(=O)N[C@@H](CCN)C(N)=O)NC(=O)[C@H](CCC(=O)O)NC(=O)[C@H](C(C)(C)O)NC(=O)[C@H](CC(C)C)NC(=O)[C@H](CC(N)=O)NC(=O)[C@@H](CC(C)C)NC(=O)[C@H](C)N(C)C(=O)[C@H](C(C)C)NC(=O)[C@H](Cc3ccc(-c4ccccc4)cc3)NC(=O)[C@H](CC(C)C)NC2=O)c1` [Example 5126] ({CH2CO}-[Ala(morpholin-4-yl)][Bip(4'-COOH)]D[Phe(3-Me)]L[Bip]V[NMeA][dL]NL[Val(3-OH)]EC[Dab]-NH2; thioether N-14), the IC50 is 0.0032 µM.

For `CC(=O)Nc1ccc(-c2ccc(C[C@@H]3NC(=O)[C@H](Cc4cccc(C(F)(F)F)c4)NC(=O)[C@H](CC(=O)O)NC(=O)[C@H](Cc4ccc(C(=O)O)cc4)NC(=O)[C@H](CN4CCOCC4)NC(=O)CSC[C@@H](C(=O)N[C@@H](CCN)C(N)=O)NC(=O)[C@H](CC(N)=O)NC(=O)[C@H](C(C)C)NC(=O)[C@H](CC4CCCCC4)NC(=O)[C@H](CCN)NC(=O)[C@@H](CC(C)C)NC(=O)[C@H](C)N(C)C(=O)[C@H](CCCN)NC(=O)[C@H](Cc4ccc(-c5ccccc5)cc4)NC3=O)cc2)cc1` [Example 5111] ({CH2CO}-[Ala(morpholin-4-yl)][Phe(4-COOH)]D[Phe(3-CF3)][Bip(4'-NHAc)][Bip][Orn][NMeA][dL][Dab][Cha]VNC[Dab]-NH2; thioether N-14), the IC50 amounted to 0.0047 µM.
